According to PubChem BioAssay (NCI):
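Cultured in 96-well plates, cells were exposed to test compound for 48 hours across five concentrations. GI50 = concentration required for 50% inhibition of growth. The concentration for full growth arrest is given as TGI.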

Columns and labels:
Assay in all cases: DTP human tumour cell line panel, 48 h
[1] = system: 786-0 renal
[2] = system: A549 NSCLC
[3] = system: ACHN renal
[4] = system: BT-549 breast
[5] = system: CAKI-1 renal
[6] = system: CCRF-CEM leukemia
[7] = system: DU-145 prostate
[8] = system: EKVX NSCLC
[9] = system: HCC-2998 colon
[10] = system: HCT-116 colon
[11] = system: HCT-15 colon
[12] = system: HL-60(TB) leukemia
[13] = system: HOP-62 NSCLC
[14] = system: HOP-92 NSCLC
[15] = system: HS 578T breast
[16] = system: HT29 colon
[17] = system: IGROV1 ovarian
[18] = system: K-562 leukemia
[19] = system: KM12 colon
[20] = system: LOX IMVI melanoma
[21] = system: M14 melanoma
[22] = system: MALME-3M melanoma
[23] = system: MCF7 breast
[24] = system: MDA-MB-231 breast
[25] = system: MDA-MB-435
[26] = system: MOLT-4 leukemia
[27] = system: NCI-H23 lung
[28] = system: NCI-H460 lung
[29] = system: NCI-H522 lung
[30] = system: NCI/ADR-RES ovarian
[31] = system: OVCAR-3 ovarian
[32] = system: OVCAR-4 ovarian
[33] = system: OVCAR-5 ovarian
[34] = system: OVCAR-8 ovarian
[35] = system: PC-3 prostate
[36] = system: RPMI-8226 leukemia
[37] = system: RXF 393 renal
[38] = system: SF-268 CNS
[39] = system: SF-295 CNS
[40] = system: SF-539 CNS
[41] = system: SK-MEL-2 melanoma
[42] = system: SK-MEL-28 melanoma
[43] = system: SK-MEL-5 melanoma
[44] = system: SN12C renal
[45] = system: SNB-19 CNS
[46] = system: SNB-75 CNS
[47] = system: SR leukemia
[48] = system: SW-620 colon
[49] = system: T-47D breast
[50] = system: TK-10 renal
[51] = system: U251 CNS
[52] = system: UACC-257 melanoma
[53] = system: UACC-62 melanoma
[54] = system: UO-31 renal

## C=C1CC[C@@H]2C(C)(C)[C@H](O)CC[C@@]2(C)[C@@H]1COc1ccc2ccc(=O)oc2c1
[1]
  GI50: 25 µM
  TGI: 68 µM
[2]
  GI50: 21.9 µM
  TGI: 60 µM
[3]
  GI50: 31.6 µM
  TGI: > 100 µM
[4]
  GI50: 20.6 µM
  TGI: 64.1 µM
[5]
  GI50: 23.2 µM
  TGI: 74.5 µM
[6]
  GI50: 28.4 µM
  TGI: > 100 µM
[7]
  GI50: 30.1 µM
  TGI: > 100 µM
[8]
  GI50: 29 µM
  TGI: > 100 µM
[9]
  GI50: 42.3 µM
  TGI: > 100 µM
[10]
  GI50: 26 µM
  TGI: 81.4 µM
[11]
  GI50: 27 µM
  TGI: > 100 µM
[12]
  GI50: 24.1 µM
  TGI: 57.6 µM
[13]
  GI50: 28.2 µM
  TGI: > 100 µM
[14]
  GI50: 12.5 µM
  TGI: 70.5 µM
[15]
  GI50: 25.1 µM
  TGI: 86.8 µM
[16]
  GI50: 32.3 µM
  TGI: > 100 µM
[17]
  GI50: 27.7 µM
  TGI: > 100 µM
[18]
  GI50: 26.9 µM
  TGI: > 100 µM
[19]
  GI50: 21.1 µM
  TGI: 51 µM
[20]
  GI50: 23.3 µM
  TGI: 56.5 µM
[21]
  GI50: 22.5 µM
  TGI: 55.5 µM
[22]
  GI50: 20.3 µM
  TGI: 64.2 µM
[23]
  GI50: 24.3 µM
  TGI: 80.8 µM
[24]
  GI50: 30.4 µM
  TGI: > 100 µM
[25]
  GI50: 25.3 µM
  TGI: 72.3 µM
[26]
  GI50: 23.9 µM
  TGI: 62 µM
[27]
  GI50: 24.5 µM
  TGI: 70.1 µM
[28]
  GI50: 26.5 µM
  TGI: 71.1 µM
[29]
  GI50: 21.2 µM
  TGI: 77.4 µM
[30]
  GI50: 22.9 µM
  TGI: 62.7 µM
[31]
  GI50: 22.3 µM
  TGI: 56 µM
[32]
  GI50: 17.2 µM
  TGI: 56.6 µM
[33]
  GI50: 38.2 µM
  TGI: > 100 µM
[34]
  GI50: 24.2 µM
  TGI: 71 µM
[35]
  GI50: 19.7 µM
  TGI: 66.3 µM
[36]
  GI50: 15.6 µM
  TGI: 51.9 µM
[37]
  GI50: 20.4 µM
  TGI: 79.5 µM
[38]
  GI50: 28.4 µM
  TGI: 90.6 µM
[39]
  GI50: 21.3 µM
  TGI: 62.4 µM
[40]
  GI50: 29.9 µM
  TGI: > 100 µM
[41]
  GI50: 23.9 µM
  TGI: 65.3 µM
[42]
  GI50: 28.7 µM
  TGI: 80.6 µM
[43]
  GI50: 17.9 µM
  TGI: 37 µM
[44]
  GI50: 28.2 µM
  TGI: > 100 µM
[45]
  GI50: 33.7 µM
  TGI: > 100 µM
[46]
  TGI: 46.3 µM
[47]
  GI50: 40 µM
  TGI: > 100 µM
[48]
  GI50: 34.5 µM
  TGI: > 100 µM
[49]
  GI50: 14.6 µM
  TGI: 64.1 µM
[50]
  GI50: 35.6 µM
  TGI: > 100 µM
[51]
  GI50: 27.5 µM
  TGI: > 100 µM
[52]
  GI50: 26.9 µM
  TGI: 69.5 µM
[53]
  TGI: 48.4 µM
[54]
  TGI: 38.4 µM
